Data reported in PubChem BioAssay (NCI).
Several values for one entry are separate records, joined by “and”; a condition that tells them apart may be missing. Identical values can stand only once.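 Grown in 96-well plates, cells were treated for 48 hours with each compound at five concentrations. Insufficient inhibition: endpoint recorded as highest concentration tested. The concentration for 50% growth inhibition is given as GI50. Definition used: TGI = concentration required for complete inhibition of growth.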

Columns and labels:
Experiment in all cases: NCI tumour cell line growth inhibition, 48 h
M14 melanoma = test system: M14 melanoma
SNB-75 CNS = test system: SNB-75 CNS
NCI-H522 lung = test system: NCI-H522 lung
HOP-92 NSCLC = test system: HOP-92 NSCLC
COLO 205 colon = test system: COLO 205 colon
SF-539 CNS = test system: SF-539 CNS
BT-549 breast = test system: BT-549 breast
SK-MEL-5 melanoma = test system: SK-MEL-5 melanoma
UO-31 renal = test system: UO-31 renal
RPMI-8226 leukemia = test system: RPMI-8226 leukemia
OVCAR-3 ovarian = test system: OVCAR-3 ovarian
SN12C renal = test system: SN12C renal
OVCAR-5 ovarian = test system: OVCAR-5 ovarian
NCI-H460 lung = test system: NCI-H460 lung
CAKI-1 renal = test system: CAKI-1 renal
HCT-116 colon = test system: HCT-116 colon
SK-OV-3 ovarian = test system: SK-OV-3 ovarian
EKVX NSCLC = test system: EKVX NSCLC
MCF7 breast = test system: MCF7 breast
SR leukemia = test system: SR leukemia
IGROV1 ovarian = test system: IGROV1 ovarian
HCC-2998 colon = test system: HCC-2998 colon
OVCAR-4 ovarian = test system: OVCAR-4 ovarian
PC-3 prostate = test system: PC-3 prostate
HT29 colon = test system: HT29 colon
U251 CNS = test system: U251 CNS
OVCAR-8 ovarian = test system: OVCAR-8 ovarian
MDA-N = test system: MDA-N
MDA-MB-231 breast = test system: MDA-MB-231 breast
SW-620 colon = test system: SW-620 colon
ACHN renal = test system: ACHN renal
UACC-62 melanoma = test system: UACC-62 melanoma
786-0 renal = test system: 786-0 renal
HOP-62 NSCLC = test system: HOP-62 NSCLC
SF-268 CNS = test system: SF-268 CNS
CCRF-CEM leukemia = test system: CCRF-CEM leukemia
MALME-3M melanoma = test system: MALME-3M melanoma
A498 renal = test system: A498 renal
SNB-19 CNS = test system: SNB-19 CNS
UACC-257 melanoma = test system: UACC-257 melanoma
MDA-MB-435 = test system: MDA-MB-435
MOLT-4 leukemia = test system: MOLT-4 leukemia
LOX IMVI melanoma = test system: LOX IMVI melanoma
SK-MEL-28 melanoma = test system: SK-MEL-28 melanoma
SK-MEL-2 melanoma = test system: SK-MEL-2 melanoma
SF-295 CNS = test system: SF-295 CNS
RXF 393 renal = test system: RXF 393 renal
K-562 leukemia = test system: K-562 leukemia
HCT-15 colon = test system: HCT-15 colon
DU-145 prostate = test system: DU-145 prostate
A549 NSCLC = test system: A549 NSCLC
T-47D breast = test system: T-47D breast
KM12 colon = test system: KM12 colon
NCI/ADR-RES ovarian = test system: NCI/ADR-RES ovarian
TK-10 renal = test system: TK-10 renal
HS 578T breast = test system: HS 578T breast
NCI-H226 lung = test system: NCI-H226 lung
NCI-H23 lung = test system: NCI-H23 lung

COc1ccc(C(=O)/C=C/c2ccc(O)c(O)c2F)c(OC)c1
TGI (M14 melanoma): 16.7 µM and 28 µM | GI50 (SNB-75 CNS): 4.53 µM | TGI (SNB-75 CNS): 40.3 µM and 18.9 µM | GI50 (NCI-H522 lung): 0.481 µM | TGI (NCI-H522 lung): 5.56 µM and 3.18 µM | GI50 (HOP-92 NSCLC): 36 µM | TGI (HOP-92 NSCLC): 75 µM and > 100 µM | GI50 (COLO 205 colon): 12.9 µM | TGI (COLO 205 colon): 22.1 µM and 27.2 µM | GI50 (SF-539 CNS): 4.5 µM | TGI (SF-539 CNS): 15.7 µM and 28.5 µM | GI50 (BT-549 breast): 6.24 µM | TGI (BT-549 breast): 18 µM and 26.2 µM | GI50 (SK-MEL-5 melanoma): 2.7 µM | TGI (SK-MEL-5 melanoma): 13.6 µM and 19.6 µM | GI50 (UO-31 renal): 7.04 µM | TGI (UO-31 renal): 16.3 µM and 38.4 µM | GI50 (RPMI-8226 leukemia): 0.923 µM | TGI (RPMI-8226 leukemia): 31 µM and 8.25 µM | GI50 (OVCAR-3 ovarian): 2.63 µM | GI50 (SN12C renal): 2.42 µM | TGI (SN12C renal): 18.6 µM and 11.9 µM | GI50 (OVCAR-5 ovarian): 15.3 µM | TGI (OVCAR-5 ovarian): 23.3 µM and 34.8 µM | TGI (NCI-H460 lung): 13 µM and 15.9 µM | GI50 (CAKI-1 renal): 5.73 µM | TGI (CAKI-1 renal): 75 µM and 44.9 µM | GI50 (HCT-116 colon): 2.66 µM | TGI (HCT-116 colon): 14 µM and 10 µM | GI50 (SK-OV-3 ovarian): 17.6 µM | TGI (SK-OV-3 ovarian): 47 µM and 90.3 µM | GI50 (EKVX NSCLC): 10.9 µM | TGI (EKVX NSCLC): 30.3 µM and 28.9 µM | GI50 (MCF7 breast): 0.334 µM | TGI (MCF7 breast): 9.83 µM and 13.1 µM | GI50 (SR leukemia): 0.072 µM | GI50 (IGROV1 ovarian): 12.8 µM | TGI (IGROV1 ovarian): 75 µM and > 100 µM | GI50 (HCC-2998 colon): 3.41 µM | TGI (HCC-2998 colon): 12.2 µM and 12.3 µM | GI50 (OVCAR-4 ovarian): 9.3 µM | TGI (OVCAR-4 ovarian): 75 µM and > 100 µM | GI50 (PC-3 prostate): 6.18 µM | TGI (PC-3 prostate): 17.7 µM and 24 µM | GI50 (HT29 colon): 4.03 µM | TGI (HT29 colon): 23.8 µM and 17.7 µM | GI50 (U251 CNS): 4.12 µM | TGI (U251 CNS): 23.1 µM and 17.9 µM | GI50 (OVCAR-8 ovarian): 8.81 µM | TGI (OVCAR-8 ovarian): 65.5 µM and > 100 µM | GI50 (MDA-N): 2.38 µM | TGI (MDA-N): 27.2 µM and 25.8 µM | TGI (MDA-MB-231 breast): 38.1 µM and 42.1 µM | TGI (SW-620 colon): 75 µM and 25.5 µM | GI50 (ACHN renal): 5.49 µM | TGI (ACHN renal): 25.6 µM and > 100 µM | TGI (UACC-62 melanoma): 16.8 µM and 21.9 µM | GI50 (786-0 renal): 1.88 µM | TGI (786-0 renal): 31.3 µM and 17.1 µM | GI50 (HOP-62 NSCLC): 19.8 µM | TGI (HOP-62 NSCLC): 37.1 µM and > 100 µM | GI50 (SF-268 CNS): 8.75 µM | TGI (SF-268 CNS): 75 µM and 59.1 µM | TGI (CCRF-CEM leukemia): 6.5 µM | GI50 (MALME-3M melanoma): 12 µM | TGI (MALME-3M melanoma): 22.6 µM and 25.2 µM | GI50 (A498 renal): 10.5 µM | TGI (A498 renal): 21.3 µM and 30.6 µM | GI50 (SNB-19 CNS): 10.7 µM | TGI (SNB-19 CNS): 19 µM and 26.1 µM | GI50 (UACC-257 melanoma): 10.5 µM | TGI (UACC-257 melanoma): 18.4 µM and 22.3 µM | GI50 (MDA-MB-435): 2.51 µM | TGI (MDA-MB-435): 75 µM and 44.1 µM | GI50 (MOLT-4 leukemia): 0.259 µM | TGI (MOLT-4 leukemia): 75 µM and 11.6 µM | GI50 (LOX IMVI melanoma): 4.95 µM | TGI (LOX IMVI melanoma): 20.3 µM and 20.4 µM | GI50 (SK-MEL-28 melanoma): 11.6 µM | TGI (SK-MEL-28 melanoma): 33.4 µM and 30.7 µM | TGI (SK-MEL-2 melanoma): 13.4 µM and 13.6 µM | GI50 (SF-295 CNS): 10.9 µM | TGI (SF-295 CNS): 26.3 µM and 34.4 µM | GI50 (RXF 393 renal): 11.6 µM | TGI (RXF 393 renal): 26.4 µM and 32.1 µM | TGI (K-562 leukemia): 75 µM and 18.1 µM | GI50 (HCT-15 colon): 0.444 µM | TGI (HCT-15 colon): 13.8 µM and 29.3 µM | GI50 (DU-145 prostate): 5.38 µM | TGI (DU-145 prostate): 16.2 µM and 19 µM | GI50 (A549 NSCLC): 8.62 µM | TGI (A549 NSCLC): 75 µM and > 100 µM | GI50 (T-47D breast): 3.21 µM | TGI (T-47D breast): 75 µM and > 100 µM | TGI (KM12 colon): 27.8 µM and 23.9 µM | GI50 (NCI/ADR-RES ovarian): 4.16 µM | TGI (NCI/ADR-RES ovarian): 67.7 µM and > 100 µM | GI50 (TK-10 renal): 7.64 µM | TGI (TK-10 renal): 28.5 µM and 23.4 µM | GI50 (HS 578T breast): 7.34 µM | TGI (HS 578T breast): 75 µM and > 100 µM | TGI (NCI-H226 lung): 37.1 µM and 46.3 µM | GI50 (NCI-H23 lung): 5.27 µM | TGI (NCI-H23 lung): 12.6 µM and 32.1 µM
